Source: US20080031950A1, “Novel anelgesic combination” (NECTID INC., priority 2007, published 2008)
Where a name gives a salt, the structure may show the parent alone.

Test system: patients suffering from Chronic non-cancer pain (CNCP)
Assay: Controlled human clinical trial, pain scored by visual analogue scale (VAS)
Assay type: in vivo
Details: mean ± SD, N = 10
Description: A typical study determined the efficacy of tramadol and […] as monotherapy and a combination of naproxen and a slow release tramadol for the treatment of pain and pain related conditions
• Tramadol hydrochloride: Generic Tramadol Hydrochloride tablets 50 mg, • Naproxen: Generic Neproxen tablets 250 mg • Slow Release Tramadol Hydrochloride: a) Example 1, b) Ultram ER 100 mg
• Treatment Drugs per day per patient • 1. Treatment A; Tramadol hydrochloride 100 mg • 2. Treatment B: Naproxen 250 mg • 3. Treatment C: Example 1 • 4. Treatment D: Ultram ER 100 mg+Naproxen 250 mg • 5. Treatment E: Example 2
The administered dosage comprised either tramadol hydrochloride (100 mg) or naproxen 250 mg or a combination of naproxen (250 mg) and slow release tramadol hydrochloride (100 mg) selected from Treatments D or a combination of naproxen 250 mg and a slow release tramadol 100 mg (Treatment C) was administered once a day to the patients in a long-term clinical trial.
40 patients were used in a clinical trial were suffering from Chronic non-cancer pain (CNCP), defined as pain for longer than 6 months, including neuropathic pain, osteoarthritis, rheumatoid arthritis, fibromyalgia, and back and musculoskeletal pain were included in the clinical trial. No effort was made to segregate the patients based on the type of pain nor did we evaluate the extent of pain relief on the basis of pain type.
Those patients with migraines, dental pain, abdominal pains (from chronic pancreatitis, kidney stones, etc.) and ischemic pain from vascular disease were excluded because they are usually not classified as CNCP. Patients with history of addiction (alcohol or drugs) were excluded from the trials
Randomization was performed with computer-generated random numbers in blocks of 10. Randomization codes of the monotherapy or combination therapy treatments were placed in sequentially numbered, opaque, sealed envelopes in the biopsy center.
Pain was assessed using a visual analogue scale (VAS) graded from 0-100 mm. Pain scoring was performed every three hours after drug administration for a total of 48 hours.
The patients were taught with a standard method by the physician how to use a VAS scoring from 0 to 100 mm to grade the intensity of pain experienced during the treatment. On that scale, the left endpoint, 0, was defined as no pain and the right endpoint 100, as the worst pain the patient could imagine. There were no further marks on the line. The intensity of pain was indicated by the distance in millimeters from the left end. Patients were asked to grade the pain intensity immediately after the administration of drugs and every three hour after for 24 hours by drawing a vertical line over each VAS line. The doctors who prescribed the medicines obtained all the VAS forms for that specific patient.
Data are expressed as means±SD. Differences in VAS were analyzed with use of the unpaired Student t test and differences in pain score reductions between the two groups were analyzed with use of the Mann-Whitney U test for the median difference. Similar statistical tests were used for between group comparisons of other outcome variables as appropriate. A two tailed P value of less than. […] SAS software was used for the statistical analysis.
We considered that a clinically significant benefit of using […] and slow release tramadol would be a reduction in the pain score (VAS) of at least 15% compared to the monotherapy with either tramadol hydrochloride or naproxen or placebo. Alternatively, the dose reduction of at least 15% of either NSAID or tramadol when used as combination over the monotherapy as significant benefit

[1] = VAS time 0 hours, scale 0-100 mm

SMILES | Pain scored by VAS [1] [mm] | Pain scored by VAS (VAS time 3 hours) [mm] | Pain scored by VAS (VAS time 6 hours) [mm] | Pain scored by VAS (VAS time 9 hours) [mm] | Pain scored by VAS (VAS time 12 hours) [mm] | Pain scored by VAS (VAS time 15 hours) [mm] | Pain scored by VAS (VAS time 18 hours) [mm] | Pain scored by VAS (VAS time 21 hours) [mm] | Pain scored by VAS (VAS time 24 hours) [mm]
COc1cccc([C@@]2(O)CCCC[C@@H]2CN(C)C)c1 (racemic) [Treatment A, (±) cis-2-[(dimethylamino)methyl]-1-(3-methoxyphenyl)cyclo-hexanol hydrochloride] | 32.4 ± 21.2 | 23.1 ± 20.1 | 18.8 ± 20.6 | 14.9 ± 17.2 | 13.1 ± 21.2 | 13.9 ± 19.2 | 15.4 ± 21.3 | 14.5 ± 19.2 | 13.9 ± 19.2
COc1ccc2cc([C@H](C)C(=O)O)ccc2c1 [Treatment B, (+)-(S)-2-(6-methoxynaphthalen-2-yl)propanoic acid] | 33.9 ± 19.1 | 18.5 ± 19.1 | 13.9 ± 21.1 | 13.8 ± 20.3 | 14.6 ± 18.6 | 17.1 ± 21.5 | 18.9 ± 19.7 | 20.1 ± 18.3 | 24.8 ± 20.9
